The values below come from US8735425B2, “Tetrahydroisoquinoline derivative” (Daiichi Sankyo Company, Limited, priority 2008, dated 2014).

The structures appear in SMILES notation.

The subject of experiment [1] is Male C57BL/6N mice. Kind of experiment: Triglyceride absorption suppression after fat loading (in vivo DGAT1 inhibitory effect). The following applies: Mus musculus, po; dose of 10 mg/kg or lower, orally administered, mice fasted overnight, plasma triglyceride after fat loading; read-out: Triglyceride absorption suppressive activity. Put shortly:
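Overnight-fasted male C57BL/6N mice dosed orally with compound (1 to 10 mg/kg in 0.5% methylcellulose), then given Pluronic-F127 1 g/kg i.p. and an oral 20% Intralipid load. Plasma triglyceride measured 1 to 4 h later. Absorption suppression (%) calculated against water-loaded and fat-loaded vehicle groups.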

In experiment [2] the target is T1, DGAT1 enzyme (Homo sapiens, UniProt O75907).
T1 construct: made in house
T1 sequence (O75907 1-488): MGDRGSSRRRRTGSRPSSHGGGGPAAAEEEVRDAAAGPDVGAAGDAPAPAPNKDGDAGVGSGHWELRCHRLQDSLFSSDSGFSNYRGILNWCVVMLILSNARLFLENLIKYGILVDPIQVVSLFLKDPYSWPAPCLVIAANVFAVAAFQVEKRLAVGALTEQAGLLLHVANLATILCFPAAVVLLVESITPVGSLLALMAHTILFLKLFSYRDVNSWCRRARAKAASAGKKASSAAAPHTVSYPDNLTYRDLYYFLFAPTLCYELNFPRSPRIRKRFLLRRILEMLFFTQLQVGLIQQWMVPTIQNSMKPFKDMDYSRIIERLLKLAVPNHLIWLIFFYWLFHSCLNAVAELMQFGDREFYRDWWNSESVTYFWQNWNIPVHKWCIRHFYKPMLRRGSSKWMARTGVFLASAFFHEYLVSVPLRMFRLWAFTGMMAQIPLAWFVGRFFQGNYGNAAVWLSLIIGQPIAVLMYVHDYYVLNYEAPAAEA
Kind of experiment: DGAT1 inhibitory activity test. Type of experiment: biochemical. The settings on record: test compound concentration of 0.05 μg/ml; read-out: Inhibitory Rate. Summed up: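 Reaction at 23° C for 30 min in 175 mM Tris-HCl pH 8.0, 8 mM MgCl2, 1 mg/ml BSA, 0.5% Triton X-100 with 0.3 mM 1,2-dioleoyl-sn-glycerol and 10 μM [14C]-oleoyl-CoA. Triglyceride extracted into heptane, separated by TLC, radioactivity quantified; % inhibition versus vehicle control, 0-min background subtracted.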

On to `O=C(O)C[C@H]1CC[C@H](OC(=O)N2CCc3cc(NC(=O)Nc4ccc(Cl)nc4)ccc3C2)CC1` [Example 92, trans-6-[3-(6-chloro-pyridin-3-yl)-ureido]-3,4-dihydro-1H-isoquinoline-2-carboxylic acid 4-carboxymethyl-cyclohexyl ester], for which the inhibition in vivo at up to 10 mg/kg in experiment [1] is not below 60%. The inhibition at 0.05 µg/mL in experiment [2] was not below 50%.
For `CCOc1cccc(NC(=O)Nc2ccc3c(c2)CCN(C(=O)O[C@H]2CC[C@H](CC(=O)O)CC2)C3)c1C` [Example 53, trans-6-[3-(3-ethoxy-2-methyl-phenyl)-ureido]-3,4-dihydro-1H-isoquinoline-2-carboxylic acid 4-carboxymethyl-cyclohexyl ester], in that order: not below 60% and not below 50%.
Regarding `O=C(O)C[C@H]1CC[C@H](OC(=O)N2CCc3cc(NC(=O)Nc4ccc(Cl)cn4)ccc3C2)CC1` [Example 91, trans-6-[3-(5-chloro-pyridin-2-yl)-ureido]-3,4-dihydro-1H-isoquinoline-2-carboxylic acid 4-carboxymethyl-cyclohexyl ester], the inhibition in vivo at up to 10 mg/kg in experiment [1] is not below 60%. In addition, in experiment [2], the inhibition at 0.05 µg/mL was not below 50%.
Taken in the same sequence, the figures for `O=C(O)C[C@H]1CC[C@H](OC(=O)N2CCc3cc(NC(=O)Nc4cccc(OC(F)F)c4)ccc3C2)CC1` [Example 51, trans-6-[3-(3-difluoromethoxy-phenyl)-ureido]-3,4-dihydro-1H-isoquinoline-2-carboxylic acid 4-carboxymethyl-cyclohexyl ester] were not below 60% and not below 50%.
On to `C[C@@H]1C[C@H](CC(=O)O)CC[C@H]1OC(=O)N1CCc2cc(NC(=O)Nc3ccccc3F)ccc2C1` (relative stereo) [Example 16, 6-[3-(2-fluoro-phenyl)-ureido]-3,4-dihydro-1H-isoquinoline-2-carboxylic acid t-4-carboxymethyl-t-2-methyl-r-1-cyclohexyl ester], for which the inhibition in vivo at up to 10 mg/kg in experiment [1] was not below 60%. In experiment [2], the inhibition at 0.05 µg/mL is not below 50%.
As for `CCOc1cccc(NC(=O)Nc2ccc3c(c2)CCN(C(=O)O[C@H]2CC[C@H](CC(=O)O)CC2)C3)c1` [Example 20, trans-6-[3-(3-ethoxy-phenyl)-ureido]-3,4-dihydro-1H-isoquinoline-2-carboxylic acid 4-carboxymethyl-cyclohexyl ester], the inhibition in vivo at up to 10 mg/kg in experiment [1] is not below 60%. For the same molecule, the inhibition at 0.05 µg/mL in experiment [2] is not below 50%.
For `CSc1cccc(NC(=O)Nc2ccc3c(c2)CCN(C(=O)O[C@H]2CC[C@H](CC(=O)O)CC2)C3)c1` [Example 64, trans-6-[3-(3-methylsulfanyl-phenyl)-ureido]-3,4-dihydro-1H-isoquinoline-2-carboxylic acid 4-carboxymethyl-cyclohexyl ester], in experiment [1], the inhibition in vivo at up to 10 mg/kg is not below 60%. For the same molecule, the inhibition at 0.05 µg/mL in experiment [2] is not below 50%.
Taken in the same sequence, the figures for `O=C(O)C[C@H]1CC[C@H](OC(=O)N2CCc3cc(NC(=O)Nc4ccccc4F)ccc3C2)C1` (relative stereo) [Example 7, trans-6-[3-(2-fluoro-phenyl)-ureido]-3,4-dihydro-1H-isoquinoline-2-carboxylic acid 3-carboxymethyl-cyclopentyl ester] were not below 60% and not below 50%.
For `COc1cccc(NC(=O)Nc2ccc3c(c2)CCN(C(=O)O[C@H]2CC[C@H](C(C)C(=O)O)CC2)C3)c1` (stereo partly drawn) [Example 104, trans-6-[3-(3-methoxy-phenyl)-ureido]-3,4-dihydro-1H-isoquinoline-2-carboxylic acid 4-(1-carboxy-ethyl)-cyclohexyl ester], in experiment [1], the inhibition in vivo at up to 10 mg/kg is not below 60%. For the same molecule, the inhibition at 0.05 µg/mL in experiment [2] was not below 50%.
In the case of `O=C(O)CC1CCC(CC(=O)N2CCc3cc(NC(=O)Nc4ccccc4F)ccc3C2)CC1` (centres unmarked) [Example 17, [4-(2-{6-[3-(2-fluoro-phenyl)-ureido]-3,4-dihydro-1H-isoquinolin-2-yl}-2-oxoethyl)-cyclohexyl]-acetic acid], the inhibition in vivo at up to 10 mg/kg in experiment [1] is not below 60%. Besides, in experiment [2], the inhibition at 0.05 µg/mL is not below 50%.
For `N#Cc1cccc(NC(=O)Nc2ccc3c(c2)CCN(C(=O)O[C@H]2CC[C@H](CC(=O)O)CC2)C3)c1` [Example 74, trans-6-[3-(3-cyano-phenyl)-ureido]-3,4-dihydro-1H-isoquinoline-2-carboxylic acid 4-carboxymethyl-cyclohexyl ester], in experiment [1], the inhibition in vivo at up to 10 mg/kg was not below 60%. The inhibition at 0.05 µg/mL in experiment [2] was not below 50%.
Consider `O=C(O)CC1CCC(NC(=O)N2CCc3cc(NC(=O)Nc4ccccc4F)ccc3C2)CC1` (centres unmarked) [Example 5, [4-({6-[3-(2-fluoro-phenyl)-ureido]-3,4-dihydro-1H-isoquinoline-2-carbonyl}-amino)-cyclohexyl]-acetic acid], for which, in experiment [1], the inhibition in vivo at up to 10 mg/kg was not below 60%. Moreover, the inhibition at 0.05 µg/mL in experiment [2] is not below 50%.
Turning to `CCc1cccc(NC(=O)Nc2ccc3c(c2)CCN(C(=O)O[C@H]2CC[C@H](CC(=O)O)CC2)C3)c1` [Example 70, trans-6-[3-(3-ethyl-phenyl)-ureido]-3,4-dihydro-1H-isoquinoline-2-carboxylic acid 4-carboxymethyl-cyclohexyl ester], the inhibition in vivo at up to 10 mg/kg in experiment [1] was not below 60%. In addition, the inhibition at 0.05 µg/mL in experiment [2] was not below 50%.
As for `CC(C)c1ccc(NC(=O)Nc2ccc3c(c2)CCN(C(=O)O[C@H]2CC[C@H](CC(=O)O)CC2)C3)cc1` [Example 72, trans-6-[3-(4-isopropyl-phenyl)-ureido]-3,4-dihydro-1H-isoquinoline-2-carboxylic acid 4-carboxymethyl-cyclohexyl ester], the inhibition in vivo at up to 10 mg/kg in experiment [1] was not below 60%. Besides, the inhibition at 0.05 µg/mL in experiment [2] is not below 50%.
Take `CC(C)c1ccccc1NC(=O)Nc1ccc2c(c1)CCN(C(=O)O[C@H]1CC[C@H](CC(=O)O)CC1)C2` [Example 28, trans-6-[3-(2-isopropyl-phenyl)-ureido]-3,4-dihydro-1H-isoquinoline-2-carboxylic acid 4-carboxymethyl-cyclohexyl ester]: in experiment [1], the inhibition in vivo at up to 10 mg/kg was not below 60%. Besides, the inhibition at 0.05 µg/mL in experiment [2] was not below 50%.
As to `CC(C)(C)c1ccc(NC(=O)Nc2ccc3c(c2)CCN(C(=O)O[C@H]2CC[C@H](CC(=O)O)CC2)C3)cc1` [Example 73, trans-6-[3-(4-tert-butyl-phenyl)-ureido]-3,4-dihydro-1H-isoquinoline-2-carboxylic acid 4-carboxymethyl-cyclohexyl ester], the inhibition in vivo at up to 10 mg/kg in experiment [1] is not below 60%. Besides, in experiment [2], the inhibition at 0.05 µg/mL is not below 50%.
As to `Cc1ccccc1NC(=O)Nc1ccc2c(c1)CCN(C(=O)O[C@H]1CC[C@H](CC(=O)O)CC1)C2` [Example 77, trans-6-(3-o-tolyl-ureido)-3,4-dihydro-1H-isoquinoline-2-carboxylic acid 4-carboxymethyl-cyclohexyl ester], the inhibition in vivo at up to 10 mg/kg in experiment [1] was not below 60%. Also, the inhibition at 0.05 µg/mL in experiment [2] was not below 50%.
`COc1cc(NC(=O)Nc2ccc3c(c2)CCN(C(=O)O[C@H]2CC[C@H](CC(=O)O)CC2)C3)ccc1F` [Example 58, trans-6-[3-(4-fluoro-3-methoxy-phenyl)-ureido]-3,4-dihydro-1H-isoquinoline-2-carboxylic acid 4-carboxymethyl-cyclohexyl ester]: the inhibition in vivo at up to 10 mg/kg in experiment [1] is not below 60%. Moreover, the inhibition at 0.05 µg/mL in experiment [2] is not below 50%.
For `CCOc1cc(NC(=O)Nc2ccc3c(c2)CCN(C(=O)O[C@H]2CC[C@H](CC(=O)O)CC2)C3)ccc1C` [Example 54, trans-6-[3-(3-ethoxy-4-methyl-phenyl)-ureido]-3,4-dihydro-1H-isoquinoline-2-carboxylic acid 4-carboxymethyl-cyclohexyl ester], in that order: not below 60% and not below 50%.
With `CCOc1ccc(F)cc1NC(=O)Nc1ccc2c(c1)CCN(C(=O)O[C@H]1CC[C@H](CC(=O)O)CC1)C2` [Example 27, trans-6-[3-(2-ethoxy-5-fluoro-phenyl)-ureido]-3,4-dihydro-1H-isoquinoline-2-carboxylic acid 4-carboxymethyl-cyclohexyl ester], the inhibition in vivo at up to 10 mg/kg in experiment [1] is not below 60%. In addition, in experiment [2], the inhibition at 0.05 µg/mL was not below 50%.
Taken in the same sequence, the figures for `O=C(O)C[C@H]1CC[C@H](OC(=O)N2CCc3cc(NC(=O)NC45CC6CC(CC(C6)C4)C5)ccc3C2)CC1` [Example 86, trans-6-(3-adamantan-1-yl-ureido)-3,4-dihydro-1H-isoquinoline-2-carboxylic acid 4-carboxymethyl-cyclohexyl ester] were not below 60% and not below 50%.
Turning to `O=C(O)C[C@H]1CC[C@H](OC(=O)N2CCc3cc(NC(=O)Nc4ccccc4)ccc3C2)CC1` [Example 50, trans-6-(3-phenyl-ureido)-3,4-dihydro-1H-isoquinoline-2-carboxylic acid 4-carboxymethyl-cyclohexyl ester], in experiment [1], the inhibition in vivo at up to 10 mg/kg was not below 60%. Moreover, the inhibition at 0.05 µg/mL in experiment [2] is not below 50%.
